This assay concerns the target full-length human ATR protein (Homo sapiens (Human), UniProt Q13535). The assay is described as follows: Binding assay ATR (TR-FRET tracer displacement). As to conditions: tracer A, TR-FRET; read-out: ATR binding (tracer A) IC50. The essentials:
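Full-length human GST-ATR co-purified with ATRIP, pre-complexed 30 min at 22 °C with anti-GST-Tb antibody, then pre-bound with compound 10 min. Tracer A or B added (2 µl of 100 nM solution), 30 min at 22 °C.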
On the technique in general: In TR-FRET formats the signal depends on donor and acceptor labels being close together.

Structures are written as SMILES.

full-length human ATR protein, sequence (Q13535 other isoform, or with tags, fused parts or gaps): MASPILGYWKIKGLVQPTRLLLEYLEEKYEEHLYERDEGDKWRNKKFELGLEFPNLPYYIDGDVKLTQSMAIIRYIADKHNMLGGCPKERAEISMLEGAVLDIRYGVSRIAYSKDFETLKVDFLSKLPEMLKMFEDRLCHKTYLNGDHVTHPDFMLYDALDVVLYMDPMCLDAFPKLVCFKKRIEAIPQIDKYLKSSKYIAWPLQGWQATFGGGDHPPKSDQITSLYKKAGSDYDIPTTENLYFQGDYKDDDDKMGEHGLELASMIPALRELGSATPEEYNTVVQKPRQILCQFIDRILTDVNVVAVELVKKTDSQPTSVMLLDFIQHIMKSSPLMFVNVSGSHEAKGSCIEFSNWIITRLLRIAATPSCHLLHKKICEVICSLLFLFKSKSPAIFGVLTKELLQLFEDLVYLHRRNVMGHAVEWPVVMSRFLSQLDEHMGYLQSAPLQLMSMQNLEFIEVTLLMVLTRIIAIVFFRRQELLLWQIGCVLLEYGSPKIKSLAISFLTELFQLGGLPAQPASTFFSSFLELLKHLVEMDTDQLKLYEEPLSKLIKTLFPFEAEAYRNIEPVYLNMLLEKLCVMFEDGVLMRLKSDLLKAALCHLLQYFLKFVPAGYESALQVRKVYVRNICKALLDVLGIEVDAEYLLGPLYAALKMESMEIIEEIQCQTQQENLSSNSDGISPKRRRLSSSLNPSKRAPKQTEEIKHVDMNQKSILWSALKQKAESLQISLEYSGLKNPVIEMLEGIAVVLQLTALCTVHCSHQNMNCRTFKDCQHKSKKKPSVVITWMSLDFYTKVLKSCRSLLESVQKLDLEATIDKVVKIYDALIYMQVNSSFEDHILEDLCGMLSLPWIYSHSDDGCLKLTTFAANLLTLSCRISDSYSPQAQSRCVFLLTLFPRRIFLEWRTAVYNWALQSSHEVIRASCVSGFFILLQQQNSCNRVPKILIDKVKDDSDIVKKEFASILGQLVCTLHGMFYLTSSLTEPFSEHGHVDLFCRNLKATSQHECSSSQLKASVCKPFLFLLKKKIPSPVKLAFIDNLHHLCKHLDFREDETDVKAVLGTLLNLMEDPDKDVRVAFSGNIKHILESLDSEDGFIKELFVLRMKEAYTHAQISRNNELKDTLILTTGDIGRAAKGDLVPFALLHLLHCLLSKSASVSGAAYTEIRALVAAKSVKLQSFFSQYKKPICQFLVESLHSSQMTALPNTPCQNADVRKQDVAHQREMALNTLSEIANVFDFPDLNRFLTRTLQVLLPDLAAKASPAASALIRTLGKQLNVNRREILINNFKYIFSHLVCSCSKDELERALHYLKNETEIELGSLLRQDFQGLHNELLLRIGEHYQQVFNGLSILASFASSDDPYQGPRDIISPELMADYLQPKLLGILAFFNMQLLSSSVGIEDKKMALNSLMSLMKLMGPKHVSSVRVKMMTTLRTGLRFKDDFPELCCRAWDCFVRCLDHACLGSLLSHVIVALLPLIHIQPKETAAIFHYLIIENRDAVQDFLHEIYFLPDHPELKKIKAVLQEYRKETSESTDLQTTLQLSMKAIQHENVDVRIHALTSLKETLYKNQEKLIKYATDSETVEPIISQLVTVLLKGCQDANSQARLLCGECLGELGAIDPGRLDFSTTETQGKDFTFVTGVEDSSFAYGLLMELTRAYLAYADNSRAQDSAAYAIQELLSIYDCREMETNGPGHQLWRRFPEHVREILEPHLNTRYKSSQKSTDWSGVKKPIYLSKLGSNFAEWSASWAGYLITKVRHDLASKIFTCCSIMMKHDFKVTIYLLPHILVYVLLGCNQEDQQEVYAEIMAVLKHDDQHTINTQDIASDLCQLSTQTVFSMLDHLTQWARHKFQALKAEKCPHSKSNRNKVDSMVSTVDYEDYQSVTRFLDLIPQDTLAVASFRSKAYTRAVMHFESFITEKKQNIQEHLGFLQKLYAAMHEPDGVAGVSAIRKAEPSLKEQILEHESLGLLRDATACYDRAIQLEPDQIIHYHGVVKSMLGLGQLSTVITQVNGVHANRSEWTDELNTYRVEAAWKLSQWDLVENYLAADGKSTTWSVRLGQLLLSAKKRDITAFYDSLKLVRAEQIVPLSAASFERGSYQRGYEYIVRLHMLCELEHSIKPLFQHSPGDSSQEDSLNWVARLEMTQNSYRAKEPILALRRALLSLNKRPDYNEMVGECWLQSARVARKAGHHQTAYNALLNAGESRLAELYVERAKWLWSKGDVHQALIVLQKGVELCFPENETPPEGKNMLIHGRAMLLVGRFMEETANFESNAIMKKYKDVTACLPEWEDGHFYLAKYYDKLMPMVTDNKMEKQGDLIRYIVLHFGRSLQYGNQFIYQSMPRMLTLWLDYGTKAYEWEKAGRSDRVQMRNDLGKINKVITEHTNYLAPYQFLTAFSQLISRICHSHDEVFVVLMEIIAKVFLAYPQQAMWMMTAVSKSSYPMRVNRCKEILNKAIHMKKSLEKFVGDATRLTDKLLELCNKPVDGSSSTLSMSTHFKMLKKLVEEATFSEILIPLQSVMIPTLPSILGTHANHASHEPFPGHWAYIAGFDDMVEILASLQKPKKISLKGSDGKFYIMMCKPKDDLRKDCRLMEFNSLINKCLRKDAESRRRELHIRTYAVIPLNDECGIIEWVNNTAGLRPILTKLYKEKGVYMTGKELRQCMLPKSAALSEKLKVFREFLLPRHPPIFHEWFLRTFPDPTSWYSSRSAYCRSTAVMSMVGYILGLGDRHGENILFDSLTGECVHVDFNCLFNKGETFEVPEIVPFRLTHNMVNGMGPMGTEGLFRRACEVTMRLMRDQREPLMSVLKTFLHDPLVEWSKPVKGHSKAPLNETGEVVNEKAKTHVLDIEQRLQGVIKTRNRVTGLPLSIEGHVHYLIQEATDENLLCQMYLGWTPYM
full-length human ATR protein, sequence (Q8WXE1 other isoform, or with tags, fused parts or gaps partner): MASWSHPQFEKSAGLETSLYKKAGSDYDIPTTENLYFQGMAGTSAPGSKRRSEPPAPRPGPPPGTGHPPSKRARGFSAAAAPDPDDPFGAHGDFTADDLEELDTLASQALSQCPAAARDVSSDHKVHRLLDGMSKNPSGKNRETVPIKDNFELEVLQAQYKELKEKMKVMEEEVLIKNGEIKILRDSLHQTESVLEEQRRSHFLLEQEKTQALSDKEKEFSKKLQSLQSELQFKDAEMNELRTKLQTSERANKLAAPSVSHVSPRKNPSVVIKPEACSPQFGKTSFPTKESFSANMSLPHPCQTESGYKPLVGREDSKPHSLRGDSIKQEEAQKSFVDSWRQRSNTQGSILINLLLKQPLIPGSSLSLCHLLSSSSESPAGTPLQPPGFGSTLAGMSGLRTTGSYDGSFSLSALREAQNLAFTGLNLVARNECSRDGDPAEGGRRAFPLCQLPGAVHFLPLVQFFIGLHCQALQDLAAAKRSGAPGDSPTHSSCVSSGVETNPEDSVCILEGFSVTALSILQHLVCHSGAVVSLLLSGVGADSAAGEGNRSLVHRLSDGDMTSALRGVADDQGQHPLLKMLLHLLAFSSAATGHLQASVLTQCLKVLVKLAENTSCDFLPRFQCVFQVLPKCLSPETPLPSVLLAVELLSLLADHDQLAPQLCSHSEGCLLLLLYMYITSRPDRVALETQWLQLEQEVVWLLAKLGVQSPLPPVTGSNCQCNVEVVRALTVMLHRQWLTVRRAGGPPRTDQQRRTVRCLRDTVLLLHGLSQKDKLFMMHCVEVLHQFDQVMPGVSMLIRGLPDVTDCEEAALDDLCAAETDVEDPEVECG

As usually defined, the IC50 is the concentration that inhibits the measured activity by half. On to `C[C@@H]1COCCN1c1cc(-c2ccc(Cl)s2)c2ccnc(-c3ccn[nH]3)c2n1` [Example 238, 4-(5-chlorothiophen-2-yl)-2-[(3R)-3-methylmorpholin-4-yl]-8-(1H-pyrazol-5-yl)-1,7-naphthyridine], for which the IC50 is 34.5 nM.

For `Cc1csc(-c2cc(N3CCOC[C@H]3C)nc3c(-c4ccn[nH]4)nccc23)c1` [Example 239, 2-[(3R)-3-methylmorpholin-4-yl]-4-(4-methylthiophen-2-yl)-8-(1H-pyrazol-5-yl)-1,7-naphthyridine], the IC50 stood at 20.3 nM.

With `Cc1cc(-c2cc(N3CCOC[C@H]3C)nc3c(-c4ccn[nH]4)nccc23)c(C)s1` [Example 240, 4-(2,5-dimethylthiophen-3-yl)-2-[(3R)-3-methylmorpholin-4-yl]-8-(1H-pyrazol-5-yl)-1,7-naphthyridine], the IC50 turned out to be 30 nM.

Regarding `C[C@@H]1COCCN1c1cc(C2CCSCC2)c2ccnc(-c3ccn[nH]3)c2n1` [Example 241, 2-[(3R)-3-methylmorpholin-4-yl]-8-(1H-pyrazol-5-yl)-4-(tetrahydro-2H-thiopyran-4-yl)-1,7-naphthyridine], the IC50 turned out to be 4.06 nM.

Consider `C[C@@H]1COCCN1c1cc(C2=CCCN(C)C2)c2ccnc(-c3ccn[nH]3)c2n1` [Example 242, 2-[(3R)-3-methylmorpholin-4-yl]-4-(1-methyl-1,2,5,6-tetrahydropyridin-3-yl)-8-(1H-pyrazol-5-yl)-1,7-naphthyridine], for which the IC50 amounted to 95.9 nM.

Regarding `C[C@@H]1COCCN1c1cc(C2=CCN(C)CC2)c2ccnc(-c3ccn[nH]3)c2n1` [Example 243, 2-[(3R)-3-methylmorpholin-4-yl]-4-(1-methyl-1,2,3,6-tetrahydropyridin-4-yl)-8-(1H-pyrazol-5-yl)-1,7-naphthyridine], the IC50 was 36.5 nM.

Turning to `C[C@@H]1COCCN1c1cc(C2CCCN(C)C2)c2ccnc(-c3ccn[nH]3)c2n1` (stereo partly drawn) [Example 244, 2-[(3R)-3-methylmorpholin-4-yl]-4-[1-methylpiperidin-3-yl]-8-(1H-pyrazol-5-yl)-1,7-naphthyridine], the IC50 is 159 nM.

Regarding `C[C@@H]1COCCN1c1cc(C2=CCNCC2)c2ccnc(-c3ccn[nH]3)c2n1` [Example 245, 2-[(3R)-3-methylmorpholin-4-yl]-8-(1H-pyrazol-5-yl)-4-(1,2,3,6-tetrahydropyridin-4-yl)-1,7-naphthyridine], the IC50 came out at 32 nM.

Turning to `C[C@@H]1COCCN1c1cc(-c2ccn(C3CCOCC3)n2)c2ccnc(-c3ccn[nH]3)c2n1` [Example 246, 2-[(3R)-3-methylmorpholin-4-yl]-8-(1H-pyrazol-5-yl)-4-[1-(tetrahydro-2H-pyran-4-yl)-1H-pyrazol-3-yl]-1,7-naphthyridine], the IC50 stood at 68 nM.

Turning to `C[C@@H]1COCCN1c1cc(-c2cnc(F)cc2F)c2ccnc(-c3ccn[nH]3)c2n1` [Example 247, 4-(4,6-difluoropyridin-3-yl)-2-[(3R)-3-methylmorpholin-4-yl]-8-(1H-pyrazol-5-yl)-1,7-naphthyridine], the IC50 is 21.6 nM.

Take `C[C@@H]1COCCN1c1cc(-c2cnn(C)c2)c2ccnc(-c3ccn[nH]3)c2n1` [Example 248, 2-[(3R)-3-methylmorpholin-4-yl]-4-(1-methyl-1H-pyrazol-4-yl)-8-(1H-pyrazol-5-yl)-1,7-naphthyridine]: the IC50 is 24.1 nM.

For `Cc1nn(C)cc1-c1cc(N2CCOC[C@H]2C)nc2c(-c3ccn[nH]3)nccc12` [Example 249, 4-(1,3-dimethyl-1H-pyrazol-4-yl)-2-[(3R)-3-methylmorpholin-4-yl]-8-(1H-pyrazol-5-yl)-1,7-naphthyridine], the IC50 came out at 13.7 nM.

Take `Cc1c(-c2cc(N3CCOC[C@H]3C)nc3c(-c4ccn[nH]4)nccc23)cnn1C` [Example 250, 4-(1,5-dimethyl-1H-pyrazol-4-yl)-2-[(3R)-3-methylmorpholin-4-yl]-8-(1H-pyrazol-5-yl)-1,7-naphthyridine]: the IC50 stood at 6.62 nM.

Consider `C[C@@H]1COCCN1c1cc(C2CCNCC2)c2ccnc(-c3ccn[nH]3)c2n1` [Example 251, 2-[(3R)-3-methylmorpholin-4-yl]-4-(piperidin-4-yl)-8-(1H-pyrazol-5-yl)-1,7-naphthyridine], for which the half-maximal inhibitory concentration (IC50) was found to be 27.5 nM.

Take `C[C@@H]1COCCN1c1cc(-c2c[nH]nc2C(F)(F)F)c2ccnc(-c3ccn[nH]3)c2n1` [Example 252, 2-[(3R)-3-methylmorpholin-4-yl]-8-(1H-pyrazol-5-yl)-4-[3-(trifluoromethyl)-1H-pyrazol-4-yl]-1,7-naphthyridine]: the IC50 amounted to 6.45 nM.

On to `C[C@@H]1COCCN1c1cc(-c2cnn(C3CCC3)c2)c2ccnc(-c3ccn[nH]3)c2n1` [Example 253, 4-(1-cyclobutyl-1H-pyrazol-4-yl)-2-[(3R)-3-methylmorpholin-4-yl]-8-(1H-pyrazol-5-yl)-1,7-naphthyridine], for which the IC50 came out at 33.7 nM.

Consider `C[C@@H]1COCCN1c1cc(-c2cnn(C3CC3)c2)c2ccnc(-c3ccn[nH]3)c2n1` [Example 254, 4-(1-cyclopropyl-1H-pyrazol-4-yl)-2-[(3R)-3-methylmorpholin-4-yl]-8-(1H-pyrazol-5-yl)-1,7-naphthyridine], for which the IC50 amounted to 44.8 nM.

Consider `C[C@@H]1COCCN1c1cc(-c2cnn(C(F)F)c2)c2ccnc(-c3ccn[nH]3)c2n1` [Example 256, 4-[1-(difluoromethyl)-1H-pyrazol-4-yl]-2-[(3R)-3-methylmorpholin-4-yl]-8-(1H-pyrazol-5-yl)-1,7-naphthyridine], for which the IC50 stood at 56.2 nM.

Take `C[C@@H]1COCCN1c1cc(-c2cnn(C(C)(C)C)c2)c2ccnc(-c3ccn[nH]3)c2n1` [Example 257, 4-(1-tert-butyl-1H-pyrazol-4-yl)-2-[(3R)-3-methylmorpholin-4-yl]-8-(1H-pyrazol-5-yl)-1,7-naphthyridine]: the half-maximal inhibitory concentration (IC50) turned out to be 58.8 nM.

For `Cc1nn(C)c(C)c1-c1cc(N2CCOC[C@H]2C)nc2c(-c3ccn[nH]3)nccc12` [Example 258, 2-[(3R)-3-methylmorpholin-4-yl]-8-(1H-pyrazol-5-yl)-4-(1,3,5-trimethyl-1H-pyrazol-4-yl)-1,7-naphthyridine], the IC50 turned out to be 7.66 nM.

`C[C@@H]1COCCN1c1cc(-c2cn(C)nc2C(F)(F)F)c2ccnc(-c3ccn[nH]3)c2n1` [Example 259, 2-[(3R)-3-methylmorpholin-4-yl]-4-[1-methyl-3-(trifluoromethyl)-1H-pyrazol-4-yl]-8-(1H-pyrazol-5-yl)-1,7-naphthyridine]: the IC50 worked out at 17.1 nM.

For `C[C@@H]1COCCN1c1cc(-c2cnn(CCO)c2)c2ccnc(-c3ccn[nH]3)c2n1` [Example 260, 2-(4-{2-[(3R)-3-methylmorpholin-4-yl]-8-(1H-pyrazol-5-yl)-1,7-naphthyridin-4-yl}-1H-pyrazol-1-yl)ethanol], the IC50 was 28.1 nM.

For `CCn1cc(-c2cc(N3CCOC[C@H]3C)nc3c(-c4ccn[nH]4)nccc23)cn1` [Example 261, 4-(1-ethyl-1H-pyrazol-4-yl)-2-[(3R)-3-methylmorpholin-4-yl]-8-(1H-pyrazol-5-yl)-1,7-naphthyridine], the IC50 came out at 29.2 nM.

In the case of `C[C@@H]1COCCN1c1cc(-c2ccn(C)c2)c2ccnc(-c3ccn[nH]3)c2n1` [Example 262, 2-[(3R)-3-methylmorpholin-4-yl]-4-(1-methyl-1H-pyrrol-3-yl)-8-(1H-pyrazol-5-yl)-1,7-naphthyridine], the IC50 is 42.2 nM.

Consider `CC(C)n1ccc(-c2cc(N3CCOC[C@H]3C)nc3c(-c4ccn[nH]4)nccc23)n1` [Example 263, 2-[(3R)-3-methylmorpholin-4-yl]-4-[1-(propan-2-yl)-1H-pyrazol-3-yl]-8-(1H-pyrazol-5-yl)-1,7-naphthyridine], for which the IC50 was 19.3 nM.

`Cc1cc(-c2cc(N3CCOC[C@H]3C)nc3c(-c4ccn[nH]4)nccc23)c(C)n1C` [Example 264, 2-[(3R)-3-methylmorpholin-4-yl]-8-(1H-pyrazol-5-yl)-4-(1,2,5-trimethyl-1H-pyrrol-3-yl)-1,7-naphthyridine]: the IC50 amounted to 25.5 nM.

For the molecule `Cc1n[nH]cc1-c1cc(N2CCOC[C@H]2C)nc2c(-c3ccn[nH]3)nccc12` [Example 266, 2-[(3R)-3-methylmorpholin-4-yl]-4-(3-methyl-1H-pyrazol-4-yl)-8-(1H-pyrazol-5-yl)-1,7-naphthyridine], the half-inhibitory concentration (IC50) stood at 8.31 nM.

Regarding `C[C@@H]1COCCN1c1cc(N)c2ccnc(-c3ccn[nH]3)c2n1` [Example 267, 2-[(3R)-3-methylmorpholin-4-yl]-8-(1H-pyrazol-5-yl)-1,7-naphthyridin-4-amine], the IC50 worked out at 1010 nM.

`CC(C)Cn1cc(-c2cc(N3CCOC[C@H]3C)nc3c(-c4ccn[nH]4)nccc23)cn1` [Example 268, 2-[(3R)-3-methylmorpholin-4-yl]-4-[1-(2-methylpropyl)-1H-pyrazol-4-yl]-8-(1H-pyrazol-5-yl)-1,7-naphthyridine]: the IC50 is 19.3 nM.

In the case of `C[C@@H]1COCCN1c1cc(-c2cn[nH]c2)c2ccnc(-c3ccn[nH]3)c2n1` [Example 269, 2-[(3R)-3-methylmorpholin-4-yl]-4-(1H-pyrazol-4-yl)-8-(1H-pyrazol-5-yl)-1,7-naphthyridine], the IC50 was 12.7 nM.

`C[C@@H]1COCCN1c1cc(-c2ncco2)c2ccnc(-c3ccn[nH]3)c2n1` [Example 270, 2-[(3R)-3-methylmorpholin-4-yl]-4-(1,3-oxazol-2-yl)-8-(1H-pyrazol-5-yl)-1,7-naphthyridine]: the IC50 came to 33.7 nM.

In the case of `Cc1nn(C)cc1-c1cc(N2CCOCC2)nc2c(-c3ccn[nH]3)nccc12` [Example 271, 4-(1,3-dimethyl-1H-pyrazol-4-yl)-2-(morpholin-4-yl)-8-(1H-pyrazol-5-yl)-1,7-naphthyridine], the IC50 was 41.6 nM.

As to `Cc1nn(C)c(C)c1-c1cc(N2CCOCC2)nc2c(-c3ccn[nH]3)nccc12` [Example 273, 2-(morpholin-4-yl)-8-(1H-pyrazol-5-yl)-4-(1,3,5-trimethyl-1H-pyrazol-4-yl)-1,7-naphthyridine], the IC50 was 14 nM.

The values above are taken from patent publication US9549932B2, “2-(morpholin-4-yl)-1,7-naphthyridines” (BAYER PHARMA AKTIENGESELLSCHAFT, priority 2014, dated 2017).
